“And” between values parts separate entries of the source, which are not always exact repeats. Equal entries are not always repeated.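 Five concentrations, 48 hours, 96-well plates. The concentration for 50% growth inhibition is given as GI50. TGI marks complete inhibition of growth.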
Tests used:
Assay in all cases: DTP human tumour cell line panel, 48 h
[1] = test system: CAKI-1 renal
[2] = test system: CCRF-CEM leukemia
[3] = test system: HCT-15 colon
[4] = test system: HL-60(TB) leukemia
[5] = test system: K-562 leukemia
[6] = test system: SK-MEL-28 melanoma
[7] = test system: SK-MEL-5 melanoma
[8] = test system: TK-10 renal
[9] = test system: UO-31 renal
[10] = test system: HCC-2998 colon

## Cn1ccnc1CCc1c(Cl)cccc1Cl
[1]
  TGI: > 100 µM
[2]
  TGI: > 100 µM
[3]
  TGI: > 100 µM
[4]
  TGI: > 100 µM
[5]
  TGI: > 100 µM
[6]
  TGI: > 100 µM
[7]
  TGI: > 100 µM
[8]
  TGI: > 100 µM
[9]
  TGI: > 100 µM

## COc1cc(C)ccc1C(=O)c1ccc(C)cc1OC
[1]
  GI50: 2.3 µM
  TGI: 92.3 µM
[2]
  GI50: 5.57 µM
  TGI: > 100 µM
[10]
  GI50: 2.87 µM
  TGI: 35.9 µM
[3]
  GI50: 1.1 µM
  TGI: > 100 µM
[5]
  GI50: 0.619 µM
  TGI: > 100 µM
[6]
  GI50: 6.96 µM
  TGI: > 100 µM
[7]
  GI50: 2.99 µM
  TGI: 24.6 µM
[8]
  GI50: 9.15 µM
  TGI: > 100 µM
[9]
  GI50: 5.74 µM
  TGI: > 100 µM

## N=C1C(O)C2(I)c3ccccc3N3C(=N)C(O)C4c5ccccc5N1C4C32 (stereo not drawn)
[1]
  TGI: > 100 µM
[2]
  TGI: 18.6 µM
[3]
  TGI: > 100 µM
[4]
  TGI: 79.4 µM
[5]
  TGI: > 100 µM
[6]
  TGI: > 100 µM
[7]
  TGI: > 100 µM
[8]
  TGI: > 100 µM
[9]
  TGI: > 100 µM

## CC(=O)Nc1ccc(-c2cc(C(=O)O)c3cc4ccccc4cc3n2)cc1
[1]
  TGI: > 100 µM
[3]
  TGI: > 100 µM
[4]
  TGI: > 100 µM
[5]
  TGI: > 100 µM
[6]
  TGI: > 100 µM
[7]
  TGI: > 100 µM
[8]
  TGI: > 100 µM

## CC(=O)c1c(C(F)(F)F)n([O-])c2ccccc2[n+]1=O
[1]
  GI50: 1.21 µM
  TGI: 3.8 µM
[3]
  GI50: 1.29 µM
  TGI: 50.4 µM
[5]
  GI50: 1.26 µM
  TGI: > 100 µM
[6]
  GI50: 3.48 µM
  TGI: 18 µM
[7]
  GI50: 0.494 µM
  TGI: 1.87 µM
[8]
  GI50: 1.2 µM
  TGI: 5.59 µM
[9]
  GI50: 2.69 µM
  TGI: 12.1 µM

## O=C1OCC2=C1C(c1cccc(F)c1)c1cc3c(cc1N2CCO)OCO3 (stereo not drawn)
[1]
  GI50: 1.24 µM
  TGI: > 50 µM
[2]
  GI50: 2.37 µM
  TGI: > 50 µM
[10]
  GI50: 7.06 µM
  TGI: > 50 µM
[3]
  GI50: 1.08 µM
  TGI: > 50 µM
[5]
  GI50: 0.353 µM
  TGI: > 50 µM
[6]
  GI50: 20.3 µM
  TGI: > 50 µM
[7]
  GI50: 1.26 µM
  TGI: > 50 µM
[8]
  GI50: 15.6 µM
  TGI: > 50 µM
[9]
  GI50: 2.88 µM
  TGI: > 50 µM

## O=C(Oc1cccnc1)c1cccnc1Nc1ccnc(C(F)(F)F)c1
[1]
  GI50: 4.73 µM
  TGI: 30.2 µM
[2]
  GI50: 2.49 µM
  TGI: 10.5 µM
[10]
  GI50: 16.8 µM
  TGI: 35.3 µM
[3]
  GI50: 27.2 µM
  TGI: > 100 µM
[5]
  GI50: 5.18 µM
  TGI: > 100 µM
[6]
  GI50: 38.1 µM
  TGI: > 100 µM
[7]
  GI50: 6.99 µM
  TGI: 63.4 µM
[8]
  GI50: 17.2 µM
  TGI: > 100 µM
[9]
  GI50: 10 µM
  TGI: 81.5 µM

## c1ccc(C2ONC3=NCCN32)cc1 (stereo not drawn)
[1]
  GI50: 36.1 µM
  TGI: > 100 µM
[2]
  GI50: 21.6 µM
  TGI: 53.4 µM
[10]
  GI50: 58.1 µM
  TGI: > 100 µM
[3]
  GI50: 16.9 µM
  TGI: > 100 µM
[5]
  GI50: 16.1 µM
  TGI: > 100 µM
[6]
  GI50: > 100 µM
  TGI: > 100 µM
[7]
  GI50: 0.995 µM
  TGI: 49.6 µM
[8]
  GI50: > 100 µM
  TGI: > 100 µM
[9]
  GI50: 27.3 µM
  TGI: > 100 µM

## COc1cccc(-c2nc3cc(NC(=O)c4ccc(Cl)c(C#N)c4)ccc3o2)c1
[1]
  GI50: 23.3 µM
  TGI: > 100 µM
[2]
  GI50: > 100 µM
  TGI: > 100 µM
[3]
  GI50: > 100 µM
  TGI: > 100 µM
[4]
  GI50: > 100 µM
  TGI: > 100 µM
[5]
  GI50: 2.69 µM
  TGI: > 100 µM
[7]
  GI50: 1.79 µM
  TGI: 4.2 µM
[8]
  GI50: 3.39 µM
  TGI: 9 µM
[9]
  GI50: 3.95 µM
  TGI: > 100 µM

## Cc1ccc(S(=O)(=O)SC/C=C\CSS(=O)(=O)c2ccc(C)cc2)cc1
[1]
  TGI: 88.9 µM and 45.7 µM
[2]
  TGI: 37.6 µM
[10]
  TGI: > 100 µM
[3]
  GI50: 6.16 µM and 43.4 µM
  TGI: > 100 µM
[5]
  TGI: 25.2 µM and 64.9 µM
[6]
  GI50: 39.7 µM and 18.8 µM
  TGI: > 78.8 µM and 35.5 µM
[7]
  TGI: > 100 µM
[8]
  GI50: 50 µM and 20.4 µM
  TGI: > 100 µM and 45.5 µM
[9]
  TGI: > 100 µM

## CCOC(=O)Oc1c(OC)cc(C(=O)c2ccc(OC)c(O)c2OC)cc1OC
[1]
  GI50: 1.81 µM
  TGI: > 100 µM
[2]
  GI50: 0.41 µM
  TGI: > 100 µM
[10]
  GI50: 2.31 µM
  TGI: > 100 µM
[3]
  GI50: 0.42 µM
  TGI: > 100 µM
[5]
  GI50: 0.416 µM
  TGI: > 100 µM
[6]
  GI50: 2.78 µM
  TGI: > 100 µM
[7]
  GI50: 0.475 µM
  TGI: 55.6 µM
[8]
  GI50: > 100 µM
  TGI: > 100 µM
[9]
  GI50: 3.54 µM
  TGI: > 100 µM

## CCOC(=O)Cc1nc2ccc3c(c2[nH]c1=O)C(=O)c1ccccc1C3=O
[1]
  TGI: > 100 µM
[2]
  TGI: > 100 µM
[10]
  TGI: > 100 µM
[3]
  TGI: > 100 µM
[5]
  TGI: > 100 µM
[6]
  TGI: > 100 µM
[7]
  TGI: > 100 µM
[8]
  TGI: > 100 µM
[9]
  TGI: > 100 µM

## N#CC(C#N)=C/C=C(\Cl)c1ccc(Cl)cc1
[1]
  GI50: 3.78 µM
  TGI: 12.6 µM
[2]
  GI50: 0.425 µM
  TGI: > 100 µM
[10]
  GI50: 6.75 µM
  TGI: 19.9 µM
[3]
  GI50: 4.5 µM
  TGI: > 42.2 µM
[5]
  GI50: 0.7 µM
[6]
  GI50: 2.38 µM
  TGI: 45 µM
[7]
  GI50: 3.13 µM
  TGI: 11.5 µM
[8]
  GI50: 4.66 µM
  TGI: 19.2 µM
[9]
  GI50: 14.4 µM
  TGI: 44.9 µM

— PubChem BioAssay (NCI)
